# Reference: patent publication US20230053649A1 (Cedilla Therapeutics, Inc., priority 2021, published 2023)
# Assays:
# [1] = system: mesothelioma cell line NCI-H226; assay: 72H TEAD Proliferation Assay (Cell Titer-Glo 2.0); format: cell-based; conditions: Homo sapiens, CTG 2.0, cell line not given in Table 1 (NCI-H226 TEAD-responsive, NCI-H28 non-responsive counter-screen)
# Procedure: 72H TEAD Proliferation Assay.
# The effect of TEAD inhibition on cell proliferation was assayed using Cell Titer Glo (CTG) 2.0 to measure response in mesothelioma cell lines NCI-H226 (ATCC, #CRL-5826) and NCI-H28 (ATCC, #CRL-5820).
# The 72H TEAD Proliferation assay utilizes Cell Titer-Glo 2.0 (Promega, #G9243) to measure the proliferation of cells in the presence or absence of compound. Cell Titer-Glo 2.0 determines the amount of viable cells by quantifying ATP (an indication of metabolically active cells). It utilizes the conversion of Luciferin to Oxyluciferin and a luminescent signal with the use of ATP to report the quantity of viable cells in culture. Within cells that are continually growing, ATP is being synthesized to meet their metabolic demands, meanwhile the opposite is true for cells that are dying or slowing down their proliferation and either no longer using ATP or are using less, respectively. The NF2-deficient NCI-H226 has been genetically validated as a cell line that is sensitive to TEAD inhibition. The NF2-wild type NCI-H28 has been genetically validated as a cell line that is not sensitive to TEAD inhibition and grows independently of TEAD activity.
# Compounds were screened against the responsive NCI-H226 cell line to assess the compounds' ability to inhibit TEAD and cell growth. Compounds were also screened against the non-responsive NCI-H28 cell line to ascertain whether the inhibition of cell growth was due to inhibition of the target TEAD or whether the inhibition was due to off-target cytotoxicity.
# Both NCI-H226 and NCI-H28 cells were grown at 37° C. with 5% CO2 using Growth Medium 1.
# Anti-proliferative effect of compounds that inhibits TEAD activity measured by CTG
# 1) Assay ready plates (ARPs) were prepared by Echo acoustic liquid handler. For each compound, duplicate of 10-point half-log dilution series were dispensed in a 384-well microplate (Corning 3571).
# 3) Before use, ARPs were allowed to warm up to room temperature for 30 min.
# 4) ARPs were spun for 5 minutes at 1500RPM before removing the plate seals.
# 5) NCI-H226 or NCI-H28 cells were harvested from culture in Assay Medium 1 and the multidrop Combi reagent dispenser was used to seed cells at 500 cells per 50ul in each well of the ARPs and one Corning 3571 plate without compounds for Time 0 (TO) readout.
# 6) The TO plate was incubated for 2 hours at 37° C. with 5% CO2 to allow cells to settle, then the CTG Assay was performed.
# 7) All ARPs were incubated for 72 hours at 37° C. with 5% CO2, then the CTG Assay was performed for Time 72H (T72) readout.
# 8) CTG Assay: Bravo liquid handler (Agilent) was used to add 25ul of CTG 2.0 to all columns of the plate except for Column 24, which was used to subtract out the background. After CTG addition, plates were placed on shaker at 800RPM for 15 minutes at room temperature and kept in the dark. Luminescence was measured using EnVision multilabel plate reader with ultra-sensitive detection module.
# 9) Data Analysis: First background luminescence (no CTG wells) was subtracted from luminescence reading of all wells, then TO luminescence was subtracted from T72 luminescence. To compare anti-proliferative effect of compounds, GI50 was obtained by fitting dose response curves with nonlinear regression curve fit.
# [2] = molecular target: TEAD1 protein (YAP Binding Domain) (Homo sapiens, UniProt P28347); assay: biochemical
# Sequence of TEAD1 protein (YAP Binding Domain) (P28347 167-426 limits assumed): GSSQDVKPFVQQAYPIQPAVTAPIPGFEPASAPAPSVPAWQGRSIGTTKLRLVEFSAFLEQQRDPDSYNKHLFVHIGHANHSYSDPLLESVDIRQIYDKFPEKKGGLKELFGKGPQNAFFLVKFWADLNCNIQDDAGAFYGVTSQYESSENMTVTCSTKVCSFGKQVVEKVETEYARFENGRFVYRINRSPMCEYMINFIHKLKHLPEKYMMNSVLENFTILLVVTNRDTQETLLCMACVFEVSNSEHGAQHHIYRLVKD
# Procedure: Compound Displacement Assay.
# A TEAD1 lipid pocket displacement assay was carried out according to the following protocol. Purified His-tagged TEAD1 protein (YAP Binding Domain) was pre-mixed with a Cy5-probe (Cy5-conjugated to a small molecule that binds in the TEAD1 lipid pocket) and Terbium-labeled anti-His antibody (Cisbio Cat 61HI2TLB). The binding of the Cy5-probe to anti-His-Tb/His-tag TEAD1 complex yielded a TR-FRET signal. […] After 60 minutes incubation at room temperature of compounds with the His-TEAD1/anti-His-Tb/Cy5-probe complex, the plate was read on a plate reader (BMG ClarioStar Cat 430-1300) using TR-FRET mode with wavelengths of 665 nm/620 nm. The potency of compounds as TEAD1 lipid pocket binders was determined by IC50 value generated using a non-linear 4 parameter curve fit.
SMILES,GI50 [1],IC50 [2]
"COC[C@H](C)NC(=O)c1cnc2c(N3CCC(C(F)(F)F)CC3)cc(OC(F)(F)F)cc2c1 [Compound I-23, (S)-N-(1-methoxypropan-2-yl)-6-(trifluoromethoxy)-8-(4-(trifluoromethyl)piperidin-1-yl)quinoline-3-carboxamide]",1000 to 5000 nM,300 to 500 nM
"C[C@H](CO)NC(=O)c1cnc2c(N3CCC4(CC3)CC4)cc(OC(F)(F)F)cc2c1 [Compound I-24, (R)-N-(1-hydroxypropan-2-yl)-8-(6-azaspiro[2.5]octan-6-yl)-6-(trifluoromethoxy)quinoline-3-carboxamide]",> 5000 nM,> 500 nM
"C[C@H](CO)NC(=O)c1cnc2c(N3CCC4(CC3)CC4)cc(OC3CC3)cc2c1 [Compound I-25, (R)-6-cyclopropoxy-N-(1-hydroxypropan-2-yl)-8-(6-azaspiro[2.5]octan-6-yl)quinoline-3-carboxamide]",1000 to 5000 nM,> 500 nM
"COC[C@H](C)NC(=O)c1cnc2c(N3CCC(C(F)(F)F)CC3)cc(OC3CC3)cc2c1 [Compound I-26, (S)-6-cyclopropoxy-N-(1-methoxypropan-2-yl)-8-(4-(trifluoromethyl)piperidin-1-yl)quinoline-3-carboxamide]",500 to 1000 nM,300 to 500 nM
"COC[C@H](C)NC(=O)c1cnc2c(N3CCC(C(F)(F)F)CC3)cc(OC(F)F)cc2c1 [Compound I-28, (S)-6-(difluoromethoxy)-N-(1-methoxypropan-2-yl)-8-(4-(trifluoromethyl)piperidin-1-yl)quinoline-3-carboxamide]",500 to 1000 nM,150 to 300 nM
"COc1cc(N2CCC(C(F)(F)F)CC2)c2ncc(C(=O)N[C@@H](CO)C(C)C)cc2c1 [Compound I-35, (R)-N-(1-hydroxy-3-methylbutan-2-yl)-6-methoxy-8-(4-(trifluoromethyl)piperidin-1-yl) quinolone-3-carboxamide]",500 to 1000 nM,300 to 500 nM
COc1cc(N2CCC(C(F)(F)F)CC2)c2ncc(C(=O)N[C@@H](CO)C3CC3)cc2c1 [Compound I-36],500 to 1000 nM,150 to 300 nM
"COc1cc(N2CCC(C(F)(F)F)CC2)c2ncc(C(=O)N[C@@H](C)c3ccccn3)cc2c1 [Compound I-37, (S)-6-methoxy-N-(1-(pyridin-2-yl)ethyl)-8-(4-(trifluoromethyl)piperidin-1-yl)quinoline-3-carboxamide]",≤ 500 nM,150 to 300 nM
"COc1cc(N2CCC(C(F)(F)F)CC2)c2ncc(C(=O)NC(C)C)cc2c1 [Compound I-38, N-isopropyl-6-methoxy-8-(4-(trifluoromethyl)piperidin-1-yl)quinoline-3-carboxamide]",≤ 500 nM,150 to 300 nM
"COc1cccc([C@H](C)NC(=O)c2cnc3c(N4CCC(C(F)(F)F)CC4)cc(OC)cc3c2)c1 [Compound I-39, (S)-6-methoxy-N-(1-(3-methoxyphenyl)ethyl)-8-(4-(trifluoromethyl)piperidin-1-yl)quinoline-3-carboxamide]",≤ 500 nM,> 500 nM
"COc1cc(N2CCC(C(F)(F)F)CC2)c2ncc(C(=O)N[C@@H](CO)C(C)(C)C)cc2c1 [Compound I-40, (R)-N-(1-hydroxy-3,3-dimethylbutan-2-yl)-6-methoxy-8-(4-(trifluoromethyl)piperidin-1-yl)quinoline-3-carboxamide]",500 to 1000 nM,150 to 300 nM
"COc1cc(N2CCC(C(F)(F)F)CC2)c2ncc(C(=O)N[C@@H](C)C(=O)O)cc2c1 [Compound I-41, (6-methoxy-8-(4-(trifluoromethyl)piperidin-1-yl)quinoline-3-carbonyl)-L-alanine]",> 5000 nM,150 to 300 nM
"COc1cc(N2CCC(C(F)(F)F)CC2)c2ncc(C(=O)N[C@H](C)C(=O)O)cc2c1 [Compound I-42, (6-Methoxy-8-(4-(trifluoromethyl)piperidin-1-yl)quinoline-3-carbonyl)-D-alanine]",> 5000 nM,150 to 300 nM
"COc1cc(N2CCC(C(F)(F)F)CC2)c2ncc(C(=O)N[C@@H](C)c3cccc(C(=O)O)c3)cc2c1 [Compound I-43, (S)-3-(1-(6-methoxy-8-(4-(trifluoromethyl)piperidin-1-yl)quinoline-3-carboxamido)ethyl)benzoic acid]",> 5000 nM,< 150 nM
"CC(NC(=O)c1ccc2c(OCC3CCC(F)(F)CC3)cccc2c1)c1ccccn1 (stereo not drawn) [Compound I-45, 5-((4,4-difluorocyclohexyl)methoxy)-N-(1-(pyridin-2-yl)ethyl)-2-naphthamide]",1000 to 5000 nM,< 150 nM
"CC(NC(=O)c1cnc2c(OCC3CCC(F)(F)CC3)cccc2c1)c1ccccn1 (stereo not drawn) [Compound I-46, 8-((4,4-Difluorocyclohexyl)methoxy)-N-(1-(pyridin-2-yl)ethyl)quinoline-3-carboxamide]",1000 to 5000 nM,300 to 500 nM
"CC(CO)NC(=O)c1cnc2c(OCC3CCC(F)(F)CC3)cccc2c1 (stereo not drawn) [Compound I-47, 8-((4,4-difluorocyclohexyl)methoxy)-N-(1-hydroxypropan-2-yl)quinoline-3-carboxamide]",> 5000 nM,> 500 nM
"Cc1cc2cc(C(=O)N[C@H](C)CO)ccc2c(N2CCC(C(F)(F)F)CC2)n1 [Compound I-48, (R)-N-(1-hydroxypropan-2-yl)-3-methyl-1-(4-(trifluoromethyl)piperidin-1-yl)isoquinoline-6-carboxamide]",≤ 500 nM,150 to 300 nM
"COc1cc2cc(C(=O)N[C@H](C)CO)ccc2c(N2CCC(C(F)(F)F)CC2)n1 [Compound I-49, (R)-N-(1-hydroxypropan-2-yl)-3-methoxy-1-(4-(trifluoromethyl)piperidin-1-yl)isoquinoline-6-carboxamide]",≤ 500 nM,< 150 nM
"COC[C@H](C)NC(=O)c1ccc2c(N3CCC(C(F)(F)F)CC3)nc(OC)cc2c1 [Compound I-50, (S)-3-Methoxy-N-(1-methoxypropan-2-yl)-1-(4-(trifluoromethyl)piperidin-1-yl)isoquinoline-6-carboxamide]",500 to 1000 nM,< 150 nM
"C[C@H](NC(=O)c1ccc2c(N3CCC(C(F)(F)F)CC3)nccc2c1)c1ccccn1 [Compound I-51, (S)-N-(1-(Pyridin-2-yl)ethyl)-1-(4-(trifluoromethyl)piperidin-1-yl)isoquinoline-6-carboxamide]",≤ 500 nM,< 150 nM
"C[C@H](CO)NC(=O)c1ccc2c(N3CCC(C(F)(F)F)CC3)nc(C(F)(F)F)cc2c1 [Compound I-52, (R)-N-(1-hydroxypropan-2-yl)-3-(trifluoromethyl)-1-(4-(trifluoromethyl)piperidin-1-yl)isoquinoline-6-carboxamide]",≤ 500 nM,< 150 nM
"O=C(O)c1ccc2c(N3CCC(C(F)(F)F)CC3)cccc2c1 [Compound I-57, 5-(4-(Trifluoromethyl)piperidin-1-yl)-2-naphthoic acid]",> 5000 nM,150 to 300 nM
"C[C@H](NC(=O)c1ccc2c(N3CCC(C(F)(F)F)CC3)cccc2c1)c1ccccn1 [Compound I-58, (S)-N-(1-(pyridin-2-yl)ethyl)-5-(4-(trifluoromethyl)piperidin-1-yl)-2-naphthamide]",≤ 500 nM,< 150 nM
"C[C@H](CO)NC(=O)c1ccc2c(N3CCC(C(F)(F)F)CC3)cccc2c1 [Compound I-59, (R)-N-(1-hydroxypropan-2-yl)-5-(4-(trifluoromethyl)piperidin-1-yl)-2-naphthamide]",≤ 500 nM,150 to 300 nM
"C[C@H](CO)NC(=O)c1cnc2c(N3CCC(C(F)(F)F)CC3)cccc2c1 [Compound I-60, (R)-N-(1-hydroxypropan-2-yl)-8-(4-(trifluoromethyl)piperidin-1-yl)quinoline-3-carboxamide]",500 to 1000 nM,150 to 300 nM
"COC[C@H](C)NC(=O)c1cnc2c(N3CCC(C(F)(F)F)CC3)cccc2c1 [Compound I-61, (S)-N-(1-methoxypropan-2-yl)-8-(4-(trifluoromethyl)piperidin-1-yl)quinoline-3-carboxamide]",500 to 1000 nM,150 to 300 nM
